Measured values as given in patent EP0996436B1, “PHARMACEUTICAL FORMULATIONS CONTAINING POORLY SOLUBLE DRUG SUBSTANCES” (Sanofi-Aventis, priority 1997, dated 1998).

Experiments:
[1] = Solubility of SR48692 in polyethylene glycol/NaOH/water; format: physicochemical; conditions: PEG/NaOH/H2O; mole equivalents of NaOH per mole of drug 1.0 and less
[2] = Dissolution rate of SR48692 capsules in deionized water pH 5.5 (USP Apparatus 2); format: physicochemical; conditions: at the end of the experiment of 60 minutes, water pH 5.5 (unbuffered), 37°C
Experimental: The dissolution rate of 25 mg SR48692 solid dispersion in hard gelatin capsules were measured in deionized water (900 ml, pH=5.5, unbuffered) at 37°C. A USP dissolution system (Apparatus 2) with a paddle speed of 100 RPM was used. Dissolution rate was monitored by UV (Hewlett Packard 8452A) at 234 nm.
A screening dissolution test was run in USP Apparatus 2 with water at pH 5.5 (unbuffered) at 37°C comparing the solid dispersion of this invention (Example 2) with unformulated (jet-milled) SR48692. The solid dispersions provide enormous dissolution enhancement with respect to pure drug and low impurity levels (0.4%).

solubility [1]: Inadequate
dissolved [2]: < 10%
Substance: SR48692
